# Measured values: PubChem BioAssay AID2060626 (Molecular Pharmacology Branch, DTP, NCI, 2025)
# Tested on: 168753-222-R-J1-PDC complex spheroid viability
# Assay: Anticancer human tumor 168753-222-R-J1-PDC patient-derived bladder carcinoma cell line growth inhibition [CLK]
# Settings: for IC50: curve of first compound; for viability, T/C: stronger effect = lower value
# From the text: A high-throughput screen of multi-cell type tumor spheroids was designed to identify active combinations of […] and targeted small molecules. Complex spheroids include a stromal component modeled by human endothelial cells (HUVEC) and fibroblasts modeled by human mesenchymal stem cells (MSCs). The concentration ranges selected for each drug and investigational agent were based upon clinically achievable concentrations if the clinical Cmax of the agent was known.
# Compounds. The drugs and investigational agents: cirtuvivint (SM08502; NSC835563), CC-671 (NSC850746), vemurafenib (NSC761431), tapotoclax (NSC804041), sotorasib (NSC818433), adagrasib (NSC831453), MRTX-1133 (NSC836407), BAY2416964 (NSC825713), copanlisib (NSC816437), inavolisib (NSC800729), abemaciclib (NSC768073), osimertinib (NSC779217), entinostat (NSC756642), eltanexor (KPT-8602, NSC794443), venetoclax (NSC766270), ceralasertib (NSC777638), bortezomib (NSC756655), olaparib (NSC753686), talazoparib (NSC767125), alisertib (NSC759677), peposertib (NSC802822), gemcitabine (NSC613327), 5-fluorouracil (NSC19893), SN-38 (NSC673596), oxaliplatin (NSC266046), paclitaxel (NSC125973), and doxorubicin (NSC123127), were obtained from the National Cancer Institute (NCI) Developmental Therapeutics Program Chemical Repository. The FDA-approved anticancer drug set is available from the Developmental Therapeutics Program at https://dtp.cancer.gov/organization/dscb/obtaining/available plates.htm. […] The stock solutions were prepared in dimethyl sulfoxide (DMSO, Sigma-Aldrich, St. Louis, MO, cat. D2650), except for the platinum complexes which were prepared in saline (Quality Biological, Gaithersburg, MD, cat. 114-055-101), at 800-fold the tested concentration and stored at -70 degrees C prior to their use. All drugs and investigational agents were tested over a range starting from a high concentration at or near the clinical Cmax and decreasing in half-log increments. If the clinical Cmax for an agent had not been determined, the highest concentration tested was 10 microM.
# Cell Culture. All cells were maintained in an incubator at 37 degrees C and 5% CO2 with 95% humidity. The PDC lines were cultured according to standard operating procedures established by the NCI PDMR. Briefly, all PDCs were thawed and cultured in Matrigel-coated flasks prepared with a working solution of 1X Ham's F-12 nutrient mix, without supplementation (Invitrogen, Waltham, MA, cat. 11765054), 100 U/mL penicillin-streptomycin (Invitrogen, cat. 15140122), and 2.5% Matrigel (Corning Inc., Corning, NY, cat. 354248) for the first three passages. The 947758-054-R-J2-PDC line was cultured in 6B/Colon 1A media, which includes advanced DMEM/F-12 (Thermo Fisher Scientific, cat. 12634028), 10 mM HEPES (Thermo Fisher Scientific, cat. 15630080), 1X GlutaMAX supplement (Thermo Fisher Scientific, cat. 35050061), 0.1 mg/mL primocin (InvivoGen, cat. ant-pm-2), 10% defined fetal bovine serum, heat inactivated (HyClone Laboratories Inc., cat. SH30070.03HI), 1.25 mM N-Acetyl-L-cysteine (Sigma-Aldrich, cat. A9165), 10 mM nicotinamide (Sigma-Aldrich, cat. N0636), 1X B-27 supplement (Thermo Fisher Scientific, cat. 17504044), 1X N-2 supplement (Thermo Fisher Scientific, cat. 17502048), and 10 microM Y-27632 dihydrochloride (Tocris Bioscience, cat. 1254). The 876862-298-R-J1-PDC was cultured in 6E media, which includes all 6B/Colon 1A media components plus 50% L-WRN conditioned media (ATCC, cat. CRL-3276), 50 ng/mL recombinant human EGF recombinant protein (hEGF; Thermo Fisher Scientific, cat. PHG0311), 10 ng/mL recombinant human fibroblast growth factor 10 (hGFG-10; PeproTech, cat. 100-26), 1 ng/mL recombinant human fibroblast growth factor 2 (hFGF-2; PeproTech, cat. 100-18B), and 1 µM prostaglandin E2 (PGE2; Tocris, cat. 2296). The 227483-062-R1-J1-PDC line was cultured in Panc media, containing all 6E components except hFGF-2, with the addition of 500 nM SB-431542 (Selleckchem, cat. S1067) and 10 nM gastrin (Tocris, cat. 3006). […]
# [1] = second compound 0.0316 µM, first compound 0.0316 µM
# [2] = second compound 0.0316 µM, first compound 0.1 µM
# [3] = second compound 0.0316 µM, first compound 0.316 µM
# [4] = second compound 0.0316 µM, first compound 1 µM
# [5] = second compound 0.1 µM, first compound 0.0316 µM
# [6] = second compound 0.1 µM, first compound 0.1 µM
# [7] = second compound 0.1 µM, first compound 0.316 µM
# [8] = second compound 0.1 µM, first compound 1 µM
# [9] = second compound 0.316 µM, first compound 0.0316 µM
# [10] = second compound 0.316 µM, first compound 0.1 µM
# [11] = second compound 0.316 µM, first compound 0.316 µM
# [12] = second compound 0.316 µM, first compound 1 µM
# [13] = second compound 1 µM, first compound 0.0316 µM
# [14] = second compound 1 µM, first compound 0.1 µM
# [15] = second compound 1 µM, first compound 0.316 µM
# [16] = second compound 1 µM, first compound 1 µM
# [17] = second compound 3.16 µM, first compound 0.0316 µM
# [18] = second compound 3.16 µM, first compound 0.1 µM
# [19] = second compound 3.16 µM, first compound 0.316 µM
# [20] = second compound 3.16 µM, first compound 1 µM
# [21] = second compound 10 µM, first compound 0.0316 µM
# [22] = second compound 10 µM, first compound 0.1 µM
# [23] = second compound 10 µM, first compound 0.316 µM
# [24] = second compound 10 µM, first compound 1 µM
# 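Further: viability measured after seven days of drug exposure.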
# 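Wherever viability, T/C is given: luminescence signal used as surrogate for viable cell amount; 100% = DMSO vehicle control wells.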
compound,measurement,setting,value
CCc1c2c(nc3ccc(O)cc13)-c1cc3c(c(=O)n1C2)COC(=O)[C@]3(O)CC + CNC(=O)c1ccc(Nc2nc(OC3CCCC3)c3c(-c4ccc5nc(C)oc5c4)c[nH]c3n2)c(OC)c1,IC50,second compound 0.0316 µM,118 nM
same,IC50,second compound 0.1 µM,201 nM
same,IC50,second compound 0.316 µM,51.8 nM
same,IC50,second compound 1 µM,< 3.16 nM
same,IC50,second compound 3.16 µM,< 3.16 nM
same,IC50,second compound 10 µM,< 3.16 nM
same,"viability, T/C","second compound 0.0316 µM, first compound 0.00316 µM",109%
same,"viability, T/C","second compound 0.0316 µM, first compound 0.01 µM",96.2%
same,"viability, T/C",[1],77.2%
same,"viability, T/C",[2],48.9%
same,"viability, T/C",[3],35.8%
same,"viability, T/C",[4],14.6%
same,"viability, T/C","second compound 0.1 µM, first compound 0.00316 µM",99.1%
same,"viability, T/C","second compound 0.1 µM, first compound 0.01 µM",87.4%
same,"viability, T/C",[5],87.8%
same,"viability, T/C",[6],50.8%
same,"viability, T/C",[7],48.8%
same,"viability, T/C",[8],12.8%
same,"viability, T/C","second compound 0.316 µM, first compound 0.00316 µM",82.1%
same,"viability, T/C","second compound 0.316 µM, first compound 0.01 µM",88.2%
same,"viability, T/C",[9],62.5%
same,"viability, T/C",[10],30.1%
same,"viability, T/C",[11],24.6%
same,"viability, T/C",[12],8.79%
same,"viability, T/C","second compound 1 µM, first compound 0.00316 µM",35.1%
same,"viability, T/C","second compound 1 µM, first compound 0.01 µM",29.9%
same,"viability, T/C",[13],17.4%
same,"viability, T/C",[14],14.1%
same,"viability, T/C",[15],14.8%
same,"viability, T/C",[16],11.5%
same,"viability, T/C","second compound 3.16 µM, first compound 0.00316 µM",18.8%
same,"viability, T/C","second compound 3.16 µM, first compound 0.01 µM",18.2%
same,"viability, T/C",[17],13%
same,"viability, T/C",[18],12.1%
same,"viability, T/C",[19],13.3%
same,"viability, T/C",[20],10.3%
same,"viability, T/C","second compound 10 µM, first compound 0.00316 µM",16.9%
same,"viability, T/C","second compound 10 µM, first compound 0.01 µM",15.3%
same,"viability, T/C",[21],16.1%
same,"viability, T/C",[22],12.6%
same,"viability, T/C",[23],13.1%
same,"viability, T/C",[24],7.91%
CC(=O)O[C@H]1C(=O)[C@@]2(C)[C@H]([C@H](OC(=O)c3ccccc3)[C@]3(O)C[C@H](OC(=O)[C@H](O)[C@@H](NC(=O)c4ccccc4)c4ccccc4)C(C)=C1C3(C)C)[C@]1(OC(C)=O)CO[C@@H]1C[C@@H]2O + CNC(=O)c1ccc(Nc2nc(OC3CCCC3)c3c(-c4ccc5nc(C)oc5c4)c[nH]c3n2)c(OC)c1,IC50,second compound 0.0316 µM,130 nM
same,IC50,second compound 0.1 µM,> 10000 nM
same,IC50,second compound 0.316 µM,> 10000 nM
same,IC50,second compound 1 µM,< 31.6 nM
same,IC50,second compound 3.16 µM,< 31.6 nM
same,IC50,second compound 10 µM,< 31.6 nM
same,"viability, T/C",[1],74.5%
same,"viability, T/C",[2],39.9%
same,"viability, T/C",[3],30.9%
same,"viability, T/C",[4],33.1%
same,"viability, T/C","second compound 0.0316 µM, first compound 3.16 µM",53.4%
same,"viability, T/C","second compound 0.0316 µM, first compound 10 µM",53.2%
same,"viability, T/C",[5],80.8%
same,"viability, T/C",[6],64.2%
same,"viability, T/C",[7],64.6%
same,"viability, T/C",[8],67.7%
same,"viability, T/C","second compound 0.1 µM, first compound 3.16 µM",86.6%
same,"viability, T/C","second compound 0.1 µM, first compound 10 µM",88.2%
same,"viability, T/C",[9],79.1%
same,"viability, T/C",[10],80.5%
same,"viability, T/C",[11],77.5%
same,"viability, T/C",[12],79.9%
same,"viability, T/C","second compound 0.316 µM, first compound 3.16 µM",85%
same,"viability, T/C","second compound 0.316 µM, first compound 10 µM",93.9%
same,"viability, T/C",[13],52.3%
same,"viability, T/C",[14],34.7%
same,"viability, T/C",[15],41.2%
same,"viability, T/C",[16],29.4%
same,"viability, T/C","second compound 1 µM, first compound 3.16 µM",52.9%
same,"viability, T/C","second compound 1 µM, first compound 10 µM",62.7%
same,"viability, T/C",[17],20.9%
same,"viability, T/C",[18],22.2%
same,"viability, T/C",[19],26.7%
same,"viability, T/C",[20],31.1%
same,"viability, T/C","second compound 3.16 µM, first compound 3.16 µM",29.9%
same,"viability, T/C","second compound 3.16 µM, first compound 10 µM",36.4%
same,"viability, T/C",[21],20.9%
same,"viability, T/C",[22],18.6%
same,"viability, T/C",[23],23.8%
same,"viability, T/C",[24],29.1%
same,"viability, T/C","second compound 10 µM, first compound 3.16 µM",35.4%
same,"viability, T/C","second compound 10 µM, first compound 10 µM",31.4%
